Assay type in all cases: biochemical
One assay addresses T1, bovine eNOS (Bos taurus, UniProt P29473).
T1 construct: made in house; host or cells: E. coli (plasmid Bov-eNOSpCW)
The experiment in a line: NOS enzyme inhibitory assay (hemoglobin capture), eNOS. The following applies: for IC50: bovine eNOS, 10 μM L-arginine, * = no inhibition observed up to the concentration listed. As for the experimental part:
(§1) All of the NOS isoforms used were recombinant enzymes overexpressed in E. coli from different sources. Nitric oxide formation from NOS was monitored by the hemoglobin capture assay as described in the literature.
Expression of bovine eNOS: An overnight culture of Bov-eNOSpCW was used to inoculate 0.5 liter (in a 2.8-liter Fernbach flask) of modified TB (20 g of yeast extract, 10 g of bacto-tryptone, 2.65 g of KH2PO4, 4.33 g of Na2HPO4 and 4 ml of glycerol per liter) containing ampicillin ([…]) and chloramphenicol ([…]). The cultures were grown to an OD600 of z0.8 at 22° C. (200 rpm) and induced with 0.5 mM IPTG. One hour before IPTG induction, d-aminolevulinic acid (0.5 mM final) was added and, at the time of IPTG induction, riboflavin ([…]) and ATP (1 mM final) were also added. After induction, the flasks were kept in the dark at 22° C. (200 rpm). The cells were harvested 48 h after induction, and the cell pellet was frozen at −80° C. until purification was carried out.
Purification of bovine eNOS. The purification was typically carried out with eNOS from 2 liters of E. coli culture. The eNOS protein was purified using a modification of the published protocol for nNOS (14). The cells were resuspended in buffer C [50 mM Tris-Cl, pH 7.8, 1 mM EDTA, 1 mM DTT, 10% glycerol (v/v), 150 mM NaCl, 0.1 mM phenylmethylsulfonyl fluoride, […]], lysed by pulsed sonication and then centrifuged to sediment the cell debris. The supernatant was applied to a 2′,5′-ADP Sepharose 4B column equilibrated in buffer D [50 mM Tris-Cl, pH 7.8, 0.1 mM EDTA, 0.1 mM dithiothreitol, 150 mM NaCl, 10% glycerol (v/v)]. The column was washed with 20 column volumes of buffer B and again with 20 column volumes of buffer B containing 600 mM NaCl. Finally, protein was eluted with buffer B containing 600 mM NaCl and 5 mM 2′-AMP. The fractions were screened for absorption in the Soret region (A400) and hemoprotein-containing fractions were pooled and concentrated (Centriprep 50, Amicon). Repeated dilution/concentration [50 mM Tris-Cl, pH 7.8, 0.1 mM EDTA, 0.1 mM dithiothreitol, 10% glycerol (vol/vol)] was used to reach a final concentration of 150 mM NaCl and commensurately reduce the 2′-AMP content. […] The purified eNOS is stored in the presence of 1 mM L-arginine.
eNOS washing: eNOS contains a significant amount of L-arginine, which will interfere with the enzyme assay. The L-arginine can be removed by several dilution and concentration steps using an Amico concentrator. The dilution buffer is 10 ml Tris-HCl 50 mM containing 0.1 mM EDTA, 400 mM NaCl, 10% glycerol and 1 mM beta-mercaptoethanol. The above dilution and concentration operation was repeated three times to give purified eNOS.
(§2) Nitric oxide formation from NOS was monitored by the hemoglobin capture assay as described previously. (Hevel, J. M.; Marletta, M. A. Nitric Oxide Synthase Assays. Methods Enzymol. 1994, […], 250-258).
(§3) The selectivity of an inhibitor is defined as the ratio of the respective Ki values.

For the next assay, the target named is T2, rat nNOS (Rattus norvegicus, UniProt P29476).
T2 construct: made in house; host or cells: E. coli (plasmid pCWnNOS)
The experiment in a line: NOS enzyme inhibitory assay (hemoglobin capture), nNOS. The following applies: Table 1a; for Selectivity n/e: Ki(eNOS)/Ki(nNOS); for Selectivity n/i: Ki(iNOS)/Ki(nNOS); for Ki: apparent Ki calculated from IC50, Km […], read-out: calc. Ki nNOS; for IC50: rat nNOS, 10 μM L-arginine. As for the experimental part: as §1
After approximately 48 h of post-induction incubation in the dark at 25° C. the cells were pelleted at 5300×g, transferred to 50 mL conical tubes, and stored at −80° C.
nNOS purification: Cell pellets from 2.0 L of culture were resuspended in sonication Buffer A (50 mM Tris Base Buffer, pH 8.0, 10% glycerol), 2 mg/ml lysozyme. 0.5 mM L-arginine. 1 mM EDTA, 0.1 mM PMSF, 1 µg/ml antipain, and 1 μM each of leupeptin, […], and […]) and lysed by sonication. Centrifugation for 1 h at 100000×g yielded supernatant which contained nNOS active enzyme. The supernatant was brought to 2 mM CaCl2 and the protein was loaded onto a 15 ml calmodulin-Sepharose column equilibrated with Buffer A containing 2 mM CaCl2. The column was washed with 100 ml Buffer B (50 mM Hepes, 5 mM DTT, and […]) containing 2 mM CaCl2, 0.5 mM L-arginine, and 10 μM BH4, and eluted with 30 ml Buffer B supplemented with 0.3 M NaCl, 5 mM EGTA, 0.5 mM L-arginine, and 10 μM BH4. The protein was then loaded onto a 5 ml 2′,5′-ADP-Sepharose column equilibrated with Buffer B supplemented with 0.3 M NaCl, 0.5 mM L-arginine, and 10 μM BH4. The column was washed with 25 ml Buffer B containing 0.5 mM L-arginine and 10 μM BH4, and then 25 ml of Buffer B only supplemented with 10 μM BH4 (without L-arginine). Neuronal NOS was eluted with 20 ml Buffer B supplemented with 10 mM 2′(3′)-AMP, 10 μM BH4 and 0.3 M NaCl. The 20 ml eluent was then concentrated to 5 ml by ultrafiltration. The above concentration operation was repeated twice more with 10 ml Buffer B supplemented with 10 µM BH4 to give the purified neuronal NOS.
Nitric oxide formation from NOS was monitored by the hemoglobin capture assay as described previously.
as §3

A further assay concerns the target T3, murine iNOS (Mus musculus, UniProt P29477).
T3 construct: made in house; host or cells: E. coli (plasmid pCWiNOS)
Put plainly: NOS enzyme inhibitory assay (hemoglobin capture), iNOS. The following applies: for IC50: murine iNOS, 10 μM L-arginine.
Excerpt: as §1
Enzyme inhibitory assay. All of the NOS isoforms used are recombinant enzymes overexpressed in E. coli from different sources.
iNOS expression: An overnight culture of pCWiNOS was used to inoculate (1:100) larger cultures of Terrific Broth media (12 g/L tryptone, 24 g/L yeast extract, 4 mL/L glycerol, 17 mM KH2PO4, and 72 mM K2HPO4) containing 50 μg/mL ampicillin and 34 μg/mL chloramphenicol at 37° C. At an OD600 of ˜0.5, the culture was cooled to 25° C. and induced by the addition of 1 mM IPTG (final concentration). After approximately 24 h of growth at 25° C., the cells were pelleted at 5300×g, transferred to 50 mL conical tubes, and stored at −80° C.
iNOS purification: Cell pellets from 1.0 L of culture were resuspended in sonication buffer (50 mM Hepes, pH 7.4, 10% glycerol, 10 μg/mL benzamidine, 5 μg/mL leupeptin, 0.2 mM of PMSF, and 1 μg/mL each of pepstatin, chymostatin, and antipain) and lysed by sonication. Centrifugation for 20 min at 13000×g yielded supernatant which contained iNOS active enzyme. iNOS supernatant was loaded onto 1 g of a 2′,5′-ADP-Sepharose 4B resin column. The column was then washed with 20 ml iNOS purification buffer (10 mM K2HPO4, 10% glycerol, 0.5 mM L-arginine, pH 7.4) and 10 μM BH4. Inducible NOS was eluted with 30 ml iNOS purification buffer supplemented with 10 mM 2′(3′)-AMP, 10 μM BH4, and 0.3 M NaCl. The eluent was concentrated to 5 ml by ultrafiltration. The above concentration operation was repeated three times more with 10 ml Hepes buffer supplemented with 10 μM BH4, to give purified inducible NOS.
as §2, §3

Where [1] appears, read: Table 1a, apparent Ki calculated from IC50, Km 1.7 μM, read-out: calc. Ki eNOS.
[2] abbreviates: Table 1a, apparent Ki calculated from IC50, Km […], read-out: calc. Ki iNOS.

Where two headings read alike, the source gives them in different places.

The IC50 is the concentration at which inhibition is half-maximal. Read a high IC50 as a need for much substance. In the case of `Cl.Cl.Nc1cccc(CC2CNCC2O)n1` (racemic) [Compound P-11], the values for the Ki on bovine eNOS (setting [1]), at rat nNOS and on murine iNOS (setting [2]) were 341 µM, 6.94 µM and 25.2 µM, respectively. For the same molecule, the IC50 is 2350 µM at bovine eNOS (Table 1a), 60.3 µM against rat nNOS and 56 µM at murine iNOS (Table 1a). This molecule also returned a Selectivity n/e on rat nNOS of 49.11. The molecule further displayed a Selectivity n/i on rat nNOS of 3.64.
Regarding `Cl.Cl.Cl.Nc1cccc(CC2CNCC2NCCCc2ccccc2)n1` (racemic) [Compound P-12], the Ki on bovine eNOS (setting [1]) is 85.2 µM; on rat nNOS it was 13.3 µM; on murine iNOS (setting [2]), 144 µM. For the same molecule, the half-inhibitory concentration (IC50) against bovine eNOS (Table 1a) worked out at 586 µM; at rat nNOS, 115 µM; against murine iNOS (Table 1a), 317 µM. For the same molecule, on rat nNOS, the Selectivity n/e is recorded as 6.42. For the same molecule, at rat nNOS, the Selectivity n/i stood at 10.83.
As for `CN(C)CCNC1CNCC1Cc1cccc(N)n1` (racemic) [Compound P-15], the values for the Ki on bovine eNOS (setting [1]), at rat nNOS and at murine iNOS (setting [2]) were 242 µM, 15.7 µM and 308 µM, respectively. For the same molecule, the IC50 against bovine eNOS (Table 1a) turned out to be 1660 µM; against rat nNOS it was 136 µM; at murine iNOS (Table 1a) it was 679 µM. The Selectivity n/e at rat nNOS is on record as 15.41. This molecule also gave a Selectivity n/i on rat nNOS of 19.65.
As for `Nc1cccc(CC2CNCC2NCC(N)Cc2ccccc2)n1` (racemic) [Compound P-16], the Ki at bovine eNOS (setting [1]) is > 1450 µM; at rat nNOS, 13.9 µM; at murine iNOS (setting [2]), 299 µM. Further, the IC50 against bovine eNOS (Table 1a) is > 10000 µM; against rat nNOS, 120 µM; against murine iNOS (Table 1a) it was 658 µM. The Selectivity n/e at rat nNOS was >104.83. On rat nNOS, this molecule had a Selectivity n/i of 21.54.
As for `Nc1cccc(CC2CNCC2NCC(N)Cc2ccccc2)n1` (racemic) [Compound P-17], the Ki was > 1450 µM at bovine eNOS (setting [1]), 20.6 µM on rat nNOS and 417 µM on murine iNOS (setting [2]). The half-maximal inhibitory concentration (IC50) on bovine eNOS (Table 1a) was > 10000 µM; against rat nNOS it was 179 µM; against murine iNOS (Table 1a) it was 919 µM. Further, the Selectivity n/e at rat nNOS is >70.64. The Selectivity n/i on rat nNOS worked out at 20.25.
With `Nc1cccc(C[C@H]2CNC[C@@H]2NCCNCc2ccccc2)n1` (racemic) [Compound P-18], on bovine eNOS (Table 1a), the IC50 was > 70000 µM. Besides, on rat nNOS, the Selectivity n/e is reported as >703.88, the Selectivity n/i stood at 11.49, the Ki was 14.5 µM and it took 126 µM to reach half-maximal inhibition (IC50). The Ki on murine iNOS (setting [2]) was 166 µM. Also, 366 µM corresponded to half-maximal inhibition against murine iNOS (Table 1a) (IC50).
With `Nc1cccc(CC2CNCC2NC2CCNC2)n1` (racemic) [Compound P-19], the figures for the Ki at bovine eNOS (setting [1]), on rat nNOS and on murine iNOS (setting [2]) were 460 µM, 20.9 µM and 253 µM, respectively. Besides, the IC50 at bovine eNOS (Table 1a) amounted to 3170 µM; against rat nNOS it was 182 µM; on murine iNOS (Table 1a) it was 559 µM. This molecule registered a Selectivity n/e at rat nNOS of 22.00. This molecule also returned a Selectivity n/i on rat nNOS of 12.11.
As to `Nc1cccc(CC2CNCC2NC2CCNC2)n1` (racemic) [Compound P-20], the Ki at bovine eNOS (setting [1]) was 625 µM; on rat nNOS it was 12.8 µM; on murine iNOS (setting [2]), 234 µM. In addition, the IC50 against bovine eNOS (Table 1a) turned out to be 4300 µM; at rat nNOS, 112 µM; at murine iNOS (Table 1a), 516 µM. Besides, the Selectivity n/e at rat nNOS came out at 48.67. In addition, the Selectivity n/i on rat nNOS is 18.21.
Regarding `Nc1cccc(CC2CNCC2NC2CCN(Cc3ccccc3)C2)n1` (racemic) [Compound P-21], the Ki on bovine eNOS (setting [1]) was 171 µM; at rat nNOS it was 24.4 µM; at murine iNOS (setting [2]), 286 µM. In addition, the IC50 at bovine eNOS (Table 1a) was found to be 1170 µM; against rat nNOS, 212 µM; against murine iNOS (Table 1a), 630 µM. The molecule further yielded a Selectivity n/e on rat nNOS of 6.99. Also, the Selectivity n/i at rat nNOS was 11.70.
For the molecule `Cc1cc(N)nc(CC2CNCC2NCCNCc2ccc(C(F)(F)F)cc2)c1.Cl.Cl.Cl.Cl` (racemic) [Compound P-56], the Ki at bovine eNOS (Table 1b, read-out: Ki eNOS) turned out to be 61.2 µM.
For the molecule `Cc1cc(N)nc(CC2CNCC2N(C)CCNCc2ccc(Cl)cc2)c1` (racemic) [Compound P-64], on bovine eNOS (Table 1b, read-out: Ki eNOS), the Ki came out at 125 µM.
For `Cc1cc(N)nc(C[C@H]2CNC[C@@H]2N(C)CCNCc2ccc(Cl)cc2)c1` (racemic) [Compound P-69], the Ki on bovine eNOS (Table 1b, read-out: Ki eNOS) is 58.1 µM.
With `Cc1cc(N)nc(C[C@H]2CNC[C@H]2OCC(=O)NCCc2cccc(F)c2)c1` (racemic) [Compound P-79, (±)-2-{cis-4-[(6-amino-4-methylpyridin-2-yl)methyl]pyrrolidin-3-yloxy}-N-(3-fluorophenethyl)acetamide], the Ki amounted to 125 µM at bovine eNOS (Table 1b, read-out: Ki eNOS) and 13 µM at murine iNOS (Table 1b, read-out: Ki iNOS).

These data come from patent US7994326B2 (Northwestern University, priority 2003, dated 2011).
